# Molecular target: T1, Recombinant human liver GK1 (GST-GK) (Homo sapiens, UniProt P35557)
# T1 construct: made in house; host or cells: E. coli
# T1 sequence (P35557 1-466 isoform P35557-2): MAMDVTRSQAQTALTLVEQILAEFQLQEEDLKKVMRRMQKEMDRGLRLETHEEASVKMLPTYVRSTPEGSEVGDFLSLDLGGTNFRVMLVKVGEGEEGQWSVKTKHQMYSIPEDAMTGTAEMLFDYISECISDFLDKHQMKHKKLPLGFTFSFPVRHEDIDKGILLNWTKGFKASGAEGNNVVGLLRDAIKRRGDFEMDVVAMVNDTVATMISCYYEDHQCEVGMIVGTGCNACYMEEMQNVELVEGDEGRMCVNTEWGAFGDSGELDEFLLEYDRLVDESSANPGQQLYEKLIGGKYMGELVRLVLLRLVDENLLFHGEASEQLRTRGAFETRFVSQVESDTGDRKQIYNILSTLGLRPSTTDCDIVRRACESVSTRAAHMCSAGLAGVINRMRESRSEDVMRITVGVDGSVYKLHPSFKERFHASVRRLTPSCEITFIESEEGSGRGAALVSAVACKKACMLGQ
# Assay: Glucokinase in vitro assay (G6PDH-coupled NADH generation, OD340)
# Assay type: biochemical
# Details: 5 mM D-glucose, 30° C., pH 7.1, 10% DMSO
# Method: Glucokinase In Vitro Assay Protocol: Glucokinase (GK) was assayed by coupling the production of glucose-6-phosphate to the generation of NADH with glucose-6-phosphate dehydrogenase (G6PDH, 0.75-1 k units/mg; Boehringer Mannheim, Indianapolis, Ind.) from Leuconostoc mesenteroides as the coupling enzyme (Scheme 2):
# Recombinant human liver GK1 was expressed in E. coli as a glutathione S-transferase fusion protein (GST-GK) [Liang et al, 1995] and was purified by chromatography over a glutathione-Sepharose 4B affinity column using the procedure provided by the manufacturer (Amersham Pharmacia Biotech, Piscataway, N.J.).
# The assay was conducted at 30° C. in a flat bottom 96-well tissue culture plate from Costar (Cambridge, Mass.) with a final incubation volume of 120 μL. The incubation reaction contained the following: 25 mM Hepes buffer (pH 7.1), 25 mM KCl, 5 mM D-glucose, 1 mM ATP, 1.8 mM NAD, 2 mM MgCl2, 1 μM sorbitol-6-phosphate, 1 mM dithiothreitol, test drug or 10% DMSO, ˜7 units/ml G6PDH, and GK (see below). All organic reagents were >98% pure and were from Boehringer Mannheim with the exceptions of D-glucose and Hepes which were from Sigma Chemical Co, St Louis, Mo. Test compounds were dissolved in DMSO and were added to the incubation reaction minus GST-GK in a volume of 12 μL to yield a final DMSO concentration of 10%. This mix was pre-incubated in the temperature controlled chamber of a SPECTRAmax 250 microplate spectrophotometer (Molecular Devices Corporation, Sunnyvale, Calif.) for 10 minutes to allow temperature equilibrium and then the reaction was started by the addition of 20 μL GST-GK.
# After addition of enzyme, the increase in optical density (OD) at 340 nm was monitored spectrophotometrically to determine the rate of change (OD340 per min). The GK activity (OD340/min) in control wells (10% DMSO minus GK activators) was compared with the activity in wells containing test GK activators, and the concentration of activator that produced a 50% increase in the activity of GK, i.e., the SC1.5, was calculated. The table below provides the in vitro glucokinase activity for the compounds in the Examples: […]
row,Structure (SMILES),SC1.5 average (concentration of activator that produced a 50% increase in the activity of GK) [µM]
1,"CC(C)(O)Cn1ccc(NC(=O)[C@H](CC2CCCC2)n2ncc(Oc3ccc(F)cc3F)cc2=O)n1 [Example 32A, (S)-3-Cyclopentyl-2-[4-(2,4-difluoro-phenoxy)-6-oxo-6H-pyridazin-1-yl]-N-[1-(2-hydroxy-2-methyl-propyl)-1H-pyrazol-3-yl]-propionamide]",0.502
2,"CC(C)(O)Cn1ccc(NC(=O)[C@@H](CC2CCCC2)n2ncc(Oc3ccc(F)cc3F)cc2=O)n1 [Example 32B, (R)-3-Cyclopentyl-2-[4-(2,4-difluoro-phenoxy)-6-oxo-6H-pyridazin-1-yl]-N-[1-(2-hydroxy-2-methyl-propyl)-1H-pyrazol-3-yl]-propionamide]",26.185
3,"CC(C)(O)Cn1ccc(NC(=O)[C@H](CC2CCCC2)n2ncc(Oc3cc(F)ccc3F)cc2=O)n1 [Example 33A, (S)-3-Cyclopentyl-2-[4-(2,5-difluoro-phenoxy)-6-oxo-6H-pyridazin-1-yl]-N-[1-(2-hydroxy-2-methyl-propyl)-1H-pyrazol-3-yl]-propionamide]",0.265
4,"CC(C)(O)Cn1ccc(NC(=O)[C@@H](CC2CCCC2)n2ncc(Oc3cc(F)ccc3F)cc2=O)n1 [Example 33B, (R)-3-Cyclopentyl-2-[4-(2,5-difluoro-phenoxy)-6-oxo-6H-pyridazin-1-yl]-N-[1-(2-hydroxy-2-methyl-propyl)-1H-pyrazol-3-yl]-propionamide]",8.849
5,"CC(C)(O)Cn1ccc(NC(=O)C(CC2CCCC2)n2ncc(Oc3ccccc3N3CCOCC3)cc2=O)n1 (centres unmarked) [Example 34, 3-Cyclopentyl-N-[1-(2-hydroxy-2-methyl-propyl)-1H-pyrazol-3-yl]-2-[4-(2-morpholin-4-yl-phenoxy)-6-oxo-6H-pyridazin-1-yl]-propionamide]",1.72
6,"CC(C)(O)Cn1ccc(NC(=O)C(CC2CCCC2)n2ncc(Oc3cccc(Oc4ccccc4)c3)cc2=O)n1 (centres unmarked) [Example 35, 3-Cyclopentyl-N-[1-(2-hydroxy-2-methyl-propyl)-1H-pyrazol-3-yl]-2-[6-oxo-4-(3-phenoxy-phenoxy)-6H-pyridazin-1-yl]-propionamide]",2.173
7,"CC(C)(O)Cn1ccc(NC(=O)[C@H](CC2CCCC2)n2ncc(Oc3c(F)cccc3F)cc2=O)n1 [Example 36A, (S)-3-Cyclopentyl-2-[4-(2,6-difluoro-phenoxy)-6-oxo-6H-pyridazin-1-yl]-N-[1-(2-hydroxy-2-methyl-propyl)-1H-pyrazol-3-yl]-propionamide]",0.034
8,"CC(C)(O)Cn1ccc(NC(=O)[C@@H](CC2CCCC2)n2ncc(Oc3c(F)cccc3F)cc2=O)n1 [Example 36B, (R)-3-Cyclopentyl-2-[4-(2,6-difluoro-phenoxy)-6-oxo-6H-pyridazin-1-yl]-N-[1-(2-hydroxy-2-methyl-propyl)-1H-pyrazol-3-yl]-propionamide]",1.596
9,"CC(C)(O)Cn1ccc(NC(=O)C(CC2CCCC2)n2ncc(Oc3cccc4cnccc34)cc2=O)n1 (centres unmarked) [Example 37, 3-Cyclopentyl-N-[1-(2-hydroxy-2-methyl-propyl)-1H-pyrazol-3-yl]-2-[4-(isoquinolin-5-yloxy)-6-oxo-6H-pyridazin-1-yl]-propionamide]",0.566
10,"CC(C)(O)Cn1ccc(NC(=O)[C@H](CC2CCCC2)n2ncc(Oc3cccc4cnccc34)cc2=O)n1 [Example 37A, (S)-3-Cyclopentyl-N-[1-(2-hydroxy-2-methyl-propyl)-1H-pyrazol-3-yl]-2-[4-(isoquinolin-5-yloxy)-6-oxo-6H-pyridazin-1-yl]-propionamide]",0.238
11,"CC(C)(O)Cn1ccc(NC(=O)[C@@H](CC2CCCC2)n2ncc(Oc3cccc4cnccc34)cc2=O)n1 [Example 37B, (R)-3-Cyclopentyl-N-[1-(2-hydroxy-2-methyl-propyl)-1H-pyrazol-3-yl]-2-[4-(isoquinolin-5-yloxy)-6-oxo-6H-pyridazin-1-yl]-propionamide]",18.488
12,"CC(C)(O)Cn1ccc(NC(=O)C(CC2CCCC2)n2ncc(Oc3cccc4ncccc34)cc2=O)n1 (centres unmarked) [Example 38, 3-Cyclopentyl-N-[1-(2-hydroxy-2-methyl-propyl)-1H-pyrazol-3-yl]-2-[6-oxo-4-(quinolin-5-yloxy)-6H-pyridazin-1-yl]-propionamide]",0.776
13,"CC(C)(O)Cn1ccc(NC(=O)C(CC2CCCC2)n2ncc(Oc3cccc4cccnc34)cc2=O)n1 (centres unmarked) [Example 39, 3-Cyclopentyl-N-[1-(2-hydroxy-2-methyl-propyl)-1H-pyrazol-3-yl]-2-[6-oxo-4-(quinolin-8-yloxy)-6H-pyridazin-1-yl]-propionamide]",0.499
14,"CC(=O)c1ccccc1Oc1cnn(C(CC2CCCC2)C(=O)Nc2ccn(CC(C)(C)O)n2)c(=O)c1 (centres unmarked) [Example 40, 2-[4-(2-Acetyl-phenoxy)-6-oxo-6H-pyridazin-1-yl]-3-cyclopentyl-N-[1-(2-hydroxy-2-methyl-propyl)-1H-pyrazol-3-yl]-propionamide]",0.228
15,"CC(C)(O)Cn1ccc(NC(=O)C(CC2CCCC2)n2ncc(Oc3ccccc3C(=O)N3CCCC3)cc2=O)n1 (centres unmarked) [Example 41, 3-Cyclopentyl-N-[1-(2-hydroxy-2-methyl-propyl)-1H-pyrazol-3-yl]-2-{6-oxo-4-[2-(pyrrolidine-1-carbonyl)-phenoxy]-6H-pyridazin-1-yl}-propionamide]",8.414
16,"CC(C)CC(C(=O)Nc1ccn(CC(C)(C)O)n1)n1ncc(Oc2c(F)cccc2F)cc1=O (centres unmarked) [Example 42, 2-[4-(2,6-Difluoro-phenoxy)-6-oxo-6H-pyridazin-1-yl]-4-methyl-pentanoic acid [1-(2-hydroxy-2-methyl-propyl)-1H-pyrazol-3-yl]-amide]",0.349
17,"CC(C)C[C@@H](C(=O)Nc1ccn(CC(C)(C)O)n1)n1ncc(Oc2c(F)cccc2F)cc1=O [Example 42A, (S)-2-[4-(2,6-Difluoro-phenoxy)-6-oxo-6H-pyridazin-1-yl]-4-methyl-pentanoic acid [1-(2-hydroxy-2-methyl-propyl)-1H-pyrazol-3-yl]-amide]",0.17
18,"CC(C)C[C@H](C(=O)Nc1ccn(CC(C)(C)O)n1)n1ncc(Oc2c(F)cccc2F)cc1=O [Example 42B, (R)-2-[4-(2,6-Difluoro-phenoxy)-6-oxo-6H-pyridazin-1-yl]-4-methyl-pentanoic acid [1-(2-hydroxy-2-methyl-propyl)-1H-pyrazol-3-yl]-amide]",5.981
19,"CC(C)(O)Cn1ccc(NC(=O)C(CC2CCOCC2)n2ncc(Oc3c(F)cccc3F)cc2=O)n1 (centres unmarked) [Example 43, 2-[4-(2,6-Difluoro-phenoxy)-6-oxo-6H-pyridazin-1-yl]-N-[1-(2-hydroxy-2-methyl-propyl)-1H-pyrazol-3-yl]-3-(tetrahydro-pyran-4-yl)-propionamide]",0.232
20,"CC(C)(O)Cn1ccc(NC(=O)[C@H](CC2CCOCC2)n2ncc(Oc3c(F)cccc3F)cc2=O)n1 [Example 43A, (S)-2-[4-(2,6-Difluoro-phenoxy)-6-oxo-6H-pyridazin-1-yl]-N-[1-(2-hydroxy-2-methyl-propyl)-1H-pyrazol-3-yl]-3-(tetrahydro-pyran-4-yl)-propionamide]",0.148
